For one test, the system named is pre-miR-21. The experiment in a line: 1D 1H imino NMR / NOESY titration of pre-miR-21 with compound. In kind it is binding, human. The settings on record: for closing of the apical loop of pre-miR-21 (new imino signals / base pairs): 1 mM pre-miR-21 titrated to 1.5 mM compound, 800 MHz, 5° C., 50 mM deuterated Tris pH 6.5, 50 mM NaCl; for binding to pre-miR-21 (NMR data): FIGS. 7A-7D. How it is done: All data were collected at 800 Mhz and at 5° C. in buffer containing 50 mM deuterated Tris at pH 6.5 and 50 mM NaCl.
Remarkably, the compounds have the unique capacity to ‘close the loop’ of pre-miR-21. This large change in RNA structure is shown in FIGS. 7A-7D, compared to the unbound RNA which are shown at the bottom of FIGS. 7A and 7C. […] The effect is very similar to what is observed with mutations that stabilize the loop structure by inducing stable formations of base pairs in place of unstable base pairs, and that also reduce miR-21 expression in both biochemical experiments and in cells, as reported in the literature. Accordingly, the compounds of formula (I) are specific pre-miR-21 binding compounds with the capacity to inhibit enzymatic processing of this oncogenic miRNA sequence.
RNA Transcription. All RNAs for ligand screening and structural or biochemical work were prepared in house using in vitro transcription on a large scale (typically 10 mL). RNA transcription and purification protocols used purified DNA oligonucleotide templates (IDT) and T7 RNA polymerase. Briefly, 1 mL of 8 μM TOP DNA (5′-CTATAGTGAGTCGTATTA-3′ (SEQ ID NO: 1)), corresponding to the phage T7 RNA polymerase promoter region, was annealed to 80 μL of 100 μM template sequences with 13 mM MgCl2, heated to 95° C. for […] then allowed to anneal to room temperature over 20 min. The annealing mixture was incubated with 5 mM of each of the four NTPs (ATP, GTP, UTP and CTP, from Sigma), transcription buffer, 8% PEG-8000 and 35 mM magnesium chloride with 0.4 mg/mL T7 RNA polymerase expressed and purified using established methods. All RNA samples are purified from crude transcriptions by 20% denaturing polyacrylamide gel electrophoresis (PAGE), electroeluted and concentrated by ethanol precipitation. The samples are re-dissolved in 12 mL of high salt wash (700 mM NaCl, 200 mM KCl, in 10 mM potassium phosphate at pH 6.5, with 10 μM EDTA to chelate any divalent ions), concentrated using Centriprep conical concentrators ([…] MWC, Millipore). The RNA was then slowly exchanged into low salt storage buffer (10 mM potassium phosphate at pH 6.5, with 10 mM NaCl and 10 μM EDTA). Prior to NMR experiments, all RNA samples were finally desalted using NAP-10 gravity columns, lyophilized and re-dissolved in ‘screening buffer’ or ‘structure buffer’ (see below), then annealed by heating for 4 min to 90° C. and snap cooling at −20° C.

The subject of test [1] is pre-miR-21 processing by Dicer-TRBP. Put plainly: Dicer/TRBP in vitro processing of pre-miR-21. Format: biochemical, human. The conditions noted are these: for inhibition of Dicer processing: pre-miR-21 compared with pre-Let7. On the procedure: In order to further assess the biochemical activity of our compounds, processing of pre-miR-21 and pre-Let7 by Dicer-TRBP in vitro was compared. FIGS. 9A and 9B show selective response in the rate of processing under early phase reaction conditions, before significant product builds up, for pre-miR21 compared to pre-Let7.
The results are specific to the initial rates (0.25-5 min) of the reaction. […] This is inevitable because Dicer binds the product tightly. This assay and method of inhibiting miR-21 synthesis is different than typical enzymatic assays. First, the small molecule is targeting the substrate of the enzymatic assay. High affinity compounds that change the structure of the substrate may reduce processing but might not inhibit processing completely. Rather, changes in the specificity constant (kcat/Km), are a better measure of small molecule inhibition than traditional Ki's.
Dicer/TRBP. The Dicer/TRBP enzyme complex was expressed and purified using published methods and stored at −80° C. in 20 μL aliquots until needed. Briefly, the gene encoding human full-length Dicer was inserted into a modified pFastBac1 vector (Invitrogen), which has an N-terminal glutathione-S-transferase (GST) tag. The GST fusion proteins were expressed in HiFive insect cells following standard procedures and isolated by glutathione affinity chromatography using buffer A (20 mM Tris-HCl pH 8.0, 150 mM NaCl, 2 mM DTT). After on-column cleavage by Tobacco Etch Virus (TEV) protease overnight, the proteins were eluted, concentrated and loaded onto Superdex 200 GL column equilibrated in buffer A. Sequences coding for human full-length TRBP2 were cloned into a modified pET28a vector with an N-terminal GB1 tag. The clones were transformed into Rosetta 2 cells and the transformants were grown in LB media at 37° C. until the cells reached a density corresponding to an OD reading of 0.8 at 600 nm. Protein expression was induced by addition of 0.2 mM IPTG at 18° C. for 20 hours. The cells were harvested, pelleted and resuspended in 20 mM Tris-HCl pH 8.0, 500 mM NaCl, mM imidazole, with 5 mM β-ME. […]

Each structure is given as a SMILES string. “Also recorded” adds a separate entry of the source.

With `O=c1[nH]c(Nc2ccc(N3CCNCC3)cn2)nc2cnccc12` [Compound 30], in the test on pre-miR-21, the “closing of the apical loop of pre-miR-21 (new imino signals / base pairs)” value is “emergence of new imino NH chemical shift resonances for the apical loop portion” and the “binding to pre-miR-21 (NMR data)” value is given as “bind to pre-miR-21 strongly”. Further, the “inhibition of Dicer processing” value in test [1] is “specifically inhibit Dicer processing”.
On to `O=c1[nH]c(Nc2ccc(N3CCNCC3)cn2)nc2cccnc12` [Compound 25], for which, in the test on pre-miR-21, the “closing of the apical loop of pre-miR-21 (new imino signals / base pairs)” value is on record as “formation of the putative tandem UG/GU wobble pair in the apical loop; also recorded: emergence of new imino NH chemical shift resonances for the apical loop portion” and the “binding to pre-miR-21 (NMR data)” value is recorded as “bind to pre-miR-21 strongly”. For the same compound, in test [1] (2 μM compound vs no compound, initial rates), the “pre-miR-21 processing by DICER/TRBP” value is listed as “processing activity is visibly reduced; also recorded: visibly reduced pre-miR-21 processing”. For the same compound, the “inhibition of Dicer processing” value in test [1] is recorded as “specifically inhibit Dicer processing”.

Values taken from patent US20230416247A1, “DRUG-LIKE MOLECULES AND METHODS FOR THE THERAPEUTIC TARGETING OF MICRORNA-21” (University of Washington, priority 2020, published 2023).
